The values below come from patent US9061013B2, “Isoxazoline derivatives as antiparasitic agents” (Zoetis LLC, priority 2011, dated 2015).

Each structure is given as a SMILES string.

In this experiment the test system is Aedes aegypti. In words: Mosquito (Aedes aegypti) Larval Assay. Particulars: mosquito larvae in DMSO/water solution, death or paralysis following 24 hour incubation at 22° C., read-out: Minimum Efficacious Dose (MED). The procedure: Mosquito (Aedes aegypti) Larval Assay
Formula (1) compounds were dissolved in DMSO and water. Five instar mosquito larvae were added to the solution and observed for death or paralysis following a 24 hour incubation period at 22° C. Endpoint data was recorded as Minimum Efficacious Dose (MED) in μM.
Consider `CNC(=O)C1CN(c2ccc(C3=NOC(c4cc(Cl)c(Cl)c(Cl)c4)(C(F)(F)F)C3)cc2)C1` (centres unmarked) [Example 17, 1-{4-[5-(3,4,5-trichloro-phenyl)-5-trifluoromethyl-4,5-dihydro-isoxazol-3-yl]-phenyl}-azetidine-3-carboxylic acid methylamide], for which the minimal effective concentration was not above 100 µM. Next, `CNC(=O)C1CC(O)(c2ccc(C3=NOC(c4cc(Cl)c(Cl)c(Cl)c4)(C(F)(F)F)C3)cc2)C1` (centres unmarked) [Example 3, 3-hydroxy-3-{4-[5-(3,4,5-trichloro-phenyl)-5-trifluoromethyl-4,5-dihydro-isoxazol-3-yl]-phenyl}-cyclobutanecarboxylic acid methylamide]: not above 100 µM. As to `O=C(CNC(=O)C1CC(F)(c2ccc(C3=NOC(c4cc(Cl)c(Cl)c(Cl)c4)(C(F)(F)F)C3)cc2)C1)NCC(F)(F)F` (centres unmarked) [Example 15, 3-fluoro-N-(2-oxo-2-((2,2,2-trifluoroethyl)amino)ethyl)-3-(4-(5-(3,4,5-trichlorophenyl)-5-(trifluoromethyl)-4,5-dihydroisoxazol-3-yl)phenyl)cyclobutanecarboxamide], the minimal effective concentration is not above 100 µM. On to `CNC(=O)C1CC(F)(c2ccc(C3=NOC(c4cc(Cl)c(Cl)c(Cl)c4)(C(F)(F)F)C3)cc2)C1` (centres unmarked) [Example 10, 3-fluoro-3-{4-[5-(3,4,5-trichloro-phenyl)-5-trifluoromethyl-4,5-dihydro-isoxazol-3-yl]-phenyl}-cyclobutanecarboxylic acid methylamide], for which the minimal effective concentration was not above 100 µM.

For the compound `CN(C)C(=O)C1CN(c2ccc(C3=NOC(c4cc(Cl)c(Cl)c(Cl)c4)(C(F)(F)F)C3)cc2Cl)C1` (centres unmarked) [Example 23, 1-{2-chloro-4-[5-(3,4,5-trichloro-phenyl)-5-trifluoromethyl-4,5-dihydro-isoxazol-3-yl]-phenyl}-azetidine-3-carboxylic acid dimethylamide], the minimal effective concentration is not above 100 µM.

Regarding `CN(C)C(=O)C1CC(F)(c2ccc(C3=NOC(c4cc(Cl)c(Cl)c(Cl)c4)(C(F)(F)F)C3)cc2)C1` (centres unmarked) [Example 11, 3-fluoro-3-{4-[5-(3,4,5-trichloro-phenyl)-5-trifluoromethyl-4,5-dihydro-isoxazol-3-yl]-phenyl}-cyclobutanecarboxylic acid dimethylamide], the minimal effective concentration is not above 100 µM. As for `O=C(NC1CC1)C1CN(c2ccc(C3=NOC(c4cc(Cl)c(Cl)c(Cl)c4)(C(F)(F)F)C3)cc2)C1` (centres unmarked) [Example 16, 1-{4-[5-(3,4,5-trichloro-phenyl)-5-trifluoromethyl-4,5-dihydro-isoxazol-3-yl]-phenyl}-azetidine-3-carboxylic acid cyclopropylamide], the minimal effective concentration is not above 100 µM. In the case of `O=C(NC1CC1)C1CC(O)(c2ccc(C3=NOC(c4cc(Cl)c(Cl)c(Cl)c4)(C(F)(F)F)C3)cc2)C1` (centres unmarked) [Example 2, 3-hydroxy-3-{4-[5-(3,4,5-trichloro-phenyl)-5-trifluoromethyl-4,5-dihydro-isoxazol-3-yl]-phenyl}-cyclobutanecarboxylic acid cyclopropylamide], the minimal effective concentration was not above 100 µM. Next, `CC(C)NC(=O)C1CC(F)(c2ccc(C3=NOC(c4cc(Cl)c(Cl)c(Cl)c4)(C(F)(F)F)C3)cc2)C1` (centres unmarked) [Example 13]: not above 100 µM. Regarding `O=C(NCC(F)(F)F)C1CC(F)(c2ccc(C3=NOC(c4cc(Cl)c(Cl)c(Cl)c4)(C(F)(F)F)C3)cc2)C1` (centres unmarked) [Example 7, 3-fluoro-3-{4-[5-(3,4,5-trichloro-phenyl)-5-trifluoromethyl-4,5-dihydro-isoxazol-3-yl]-phenyl}-cyclobutanecarboxylic acid (2,2,2-trifluoro-ethyl)-amide], the minimal effective concentration is not above 100 µM. As to `CN(C)C(=O)C1CC(O)(c2ccc(C3=NOC(c4cc(Cl)c(Cl)c(Cl)c4)(C(F)(F)F)C3)cc2)C1` (centres unmarked) [Example 4, 3-hydroxy-3-{4-[5-(3,4,5-trichloro-phenyl)-5-trifluoromethyl-4,5-dihydro-isoxazol-3-yl]-phenyl}-cyclobutanecarboxylic acid dimethylamide], the minimal effective concentration was not above 100 µM. With `O=C(NC1CC(F)(c2ccc(C3=NOC(c4cc(Cl)c(Cl)c(Cl)c4)(C(F)(F)F)C3)cc2)C1)C1CC1` (centres unmarked) [Example 24, N-(3-fluoro-3-(4-(5-(3,4,5-trichlorophenyl)-5-(trifluoromethyl)-4,5-dihydroisoxazol-3-yl)phenyl)cyclobutyl)cyclopropanecarboxamide], the minimal effective concentration was not above 100 µM. On to `O=C(NCC(F)(F)F)C1CN(c2ccc(C3=NOC(c4cc(Cl)c(Cl)c(Cl)c4)(C(F)(F)F)C3)cc2)C1` (centres unmarked) [Example 18, 1-{4-[5-(3,4,5-trichloro-phenyl)-5-trifluoromethyl-4,5-dihydro-isoxazol-3-yl]-phenyl}-azetidine-3-carboxylic acid (2,2,2-trifluoro-ethyl)-amide], for which the minimal effective concentration is not above 100 µM.

For the compound `O=C(NC1CC1)C1CN(c2ccc(C3=NOC(c4cc(Cl)c(Cl)c(Cl)c4)(C(F)(F)F)C3)cc2Cl)C1` (centres unmarked) [Example 22, 1-{2-chloro-4-[5-(3,4,5-trichloro-phenyl)-5-trifluoromethyl-4,5-dihydro-isoxazol-3-yl]-phenyl}-azetidine-3-carboxylic acid cyclopropylamide], the minimal effective concentration is not above 100 µM. On to `O=C(NCC(F)(F)F)C1CN(c2ccc(C3=NOC(c4cc(Cl)c(Cl)c(Cl)c4)(C(F)(F)F)C3)cc2Cl)C1` (centres unmarked) [Example 21, 1-{2-chloro-4-[5-(3,4,5-trichloro-phenyl)-5-trifluoromethyl-4,5-dihydro-isoxazol-3-yl]-phenyl}-azetidine-3-carboxylic acid (2,2,2-trifluoro-ethyl)-amide], for which the minimal effective concentration is not above 100 µM. As to `O=C(NCC(F)(F)F)C1CC(O)(c2ccc(C3=NOC(c4cc(Cl)c(Cl)c(Cl)c4)(C(F)(F)F)C3)cc2)C1` (centres unmarked) [Example 1, 3-hydroxy-3-{4-[5-(3,4,5-trichloro-phenyl)-5-trifluoromethyl-4,5-dihydro-isoxazol-3-yl]-phenyl}-cyclobutanecarboxylic acid (2,2,2-trifluoro-ethyl)-amide], the minimal effective concentration is not above 100 µM. As for `CCNC(=O)C1CC(F)(c2ccc(C3=NOC(c4cc(Cl)c(Cl)c(Cl)c4)(C(F)(F)F)C3)cc2)C1` (centres unmarked) [Example 14, 3-fluoro-3-{4-[5-(3,4,5-trichloro-phenyl)-5-trifluoromethyl-4,5-dihydro-isoxazol-3-yl]-phenyl}-cyclobutanecarboxylic acid ethylamide], the minimal effective concentration was not above 100 µM. On to `CS(=O)(=O)CC(=O)NC1CC(F)(c2ccc(C3=NOC(c4cc(Cl)c(Cl)c(Cl)c4)(C(F)(F)F)C3)cc2)C1` (centres unmarked) [Example 25, N-(3-fluoro-3-(4-(5-(3,4,5-trichlorophenyl)-5-(trifluoromethyl)-4,5-dihydroisoxazol-3-yl)phenyl)cyclobutyl)-2-(methylsulfonyl)acetamide], for which the minimal effective concentration is not above 100 µM. Regarding `CNC(=O)C1CN(c2ccc(C3=NOC(c4cc(Cl)c(Cl)c(Cl)c4)(C(F)(F)F)C3)cc2Cl)C1` (centres unmarked) [Example 20, 1-{2-chloro-4-[5-(3,4,5-trichloro-phenyl)-5-trifluoromethyl-4,5-dihydro-isoxazol-3-yl]-phenyl}-azetidine-3-carboxylic acid methylamide], the minimal effective concentration was not above 100 µM.

In the case of `CN(C)C(=O)C1CN(c2ccc(C3=NOC(c4cc(Cl)c(Cl)c(Cl)c4)(C(F)(F)F)C3)cc2)C1` (centres unmarked) [Example 19, 1-{4-[5-(3,4,5-trichloro-phenyl)-5-trifluoromethyl-4,5-dihydro-isoxazol-3-yl]-phenyl}azetidine-3-carboxylic acid dimethylamide], the minimal effective concentration is not above 100 µM.
